Data published in patent US20160368919A1, “NOVEL PYRIDINE PYRAZINONES AS BET-FAMILY BROMODOMAIN INHIBITORS” (Pfizer Inc., priority 2015, published 2016).

Legend:
BRD4 BD1 = target: T1, BRD4 BD1 (Homo sapiens, UniProt O60885); experiment: BRD4 BD1 Fluorescence Polarization (FP) competition binding assay; settings: BRD4 BD1 40 nM, probe PFI-411FP 2 nM
T1 construct: His-tagged BRD4 BD1 (44-160); made in house
Protocol: Compound binding to BRD4 BD1 was assessed with a FP competition binding assay. […] All assay components were diluted in 50 mM HEPES pH 7.4 containing 0.08% bovine serum albumin (assay buffer). To start the assay, 8 μL of BRD4 BD1 was added to each well of a low volume 384-well black flat bottom microtiter plate (Corning 3820) containing 4 μl of various concentrations of test compound (each plate also contained positive and negative control wells to define the upper and lower limits of the assay signal). After addition of BRD4 BD1, the assay plate was incubated at room temperature (RT, 20° C.). After 15 minutes, 4 μL of PFI-411FP was added to each well and the assay plate was placed in the dark at RT. The final assay concentration (FAC) of PFI-411FP was 2 nM, the FAC of BRD4 BD1 was 40 nM, the FAC of test compound ranged from 120 to 0.0012 μM and the FAC of DMSO was 0.4%. After 60 min, polarization values were measured with an Envision 2103 multilabel reader (Perkin Elmer) using a Cy5 dual enhanced mirror and excitation at 620 nm and emission at 688 nm. The percent (%) effect was calculated for each concentration of test compound and was relative to the amount of polarization signal produced by the positive and negative control wells contained within each assay plate. The concentrations and % effect values for test compounds were plotted versus each other with a proprietary curve fitting program using a four-parameter logistic dose response equation and the concentration of compound required for 50% effect (IC50) was determined. The Ki values of competitive inhibitors were calculated using the equation described by Nikolovska-Coleska et al. (Development and optimization of a binding assay for the XIAP BIR3 domain using fluorescence polarization. Analytical Biochemistry (2004) 332: 261-273).

[1] = test system: LPS-induced IL-6 production in human whole blood; experiment: IL-6 human whole blood (HWB) assay, LPS-stimulated, HTRF detection; type: cell-based; settings: 1 ng/ml LPS, 4 hours
Protocol: Compound effect on IL-6 production was determined using lipopolysaccharide (LPS)-stimulated human whole blood and an HTRF (Homogeneous Time-Resolved Fluorescence) IL-6 detection kit (Human IL6 HTRF Assay CisBio 62IL6PEC). HWB was collected by venous puncture from healthy donors, transferred to a 50 ml polypropylene tube containing sodium heparin (14.3 units per mL of HWB) and then placed in a 37° C. water bath until use. To start the assay, 80 μL of heparin-treated HWB containing 1 ng/ml of LPS (equivalent to LPS ˜EC80 with regard to stimulation of IL-6 production in HWB under these assay conditions) was added to each well of a 384-well, sterile, endotoxin-free, polypropylene plate (Greiner 781281) containing 160 nL of various concentrations of test compound (each plate also contained positive and negative control wells to define the upper and lower limits of the assay signal). The plate was then placed in a thermoshaker incubator set to 370C (Boekel 270440). The final assay concentration (FAC) of test compound ranged from 60 to 0.0006 μM and the FAC of DMSO was 0.2%. After 4 hours, the assay plate was removed from the incubator and centrifuged at 700×g for 10 minutes. 5 μL of the resulting upper plasma layer was removed from each well and diluted 1:2 with 1×Dulbecco's phosphate buffered saline (DPBS). 5 μL of this diluted plasma was then transferred to a white 384-well low volume assay plate (Greiner 784080) containing 5 μL of combined anti-IL-6-Cryptate and anti-IL-6-XL665 detection antibodies (per manufacturer's protocol). The plate was then sealed with a Top Seal (Perkin Elmer 6005185) and incubated at room temperature (RT, 20° C.). After 16-18 hrs (overnight), the HTRF assay signal was read on an Envision 2103 plate reader using a Lance Delfia Dual/Bias mirror TRF laser excitation and emission was measured at 665 nm and 615 nm respectively. The percent (%) effect was calculated for each concentration of test compound and was relative to the amount of HTRF signal produced by the positive and negative control wells contained within each assay plate. The concentrations and % effect values for test compounds were plotted versus each other with a proprietary curve fitting program using a four-parameter logistic dose response equation and the concentration of compound required for 50% effect (IC50) was determined.

IC50 (BRD4 BD1) [nM] | IC50 [1] [nM] | SMILES
346 | 11900 | CCC(CC)n1c(=O)c(NCCC(=O)O)nc2ccc(-c3c(C)noc3C)nc21 [Example 56, N-[6-(3,5-dimethyl-1,2-oxazol-4-yl)-3-oxo-4-(pentan-3-yl)-3,4-dihydropyrido[2,3-b]pyrazin-2-yl]-beta-alanine]
130 | 2390 | CCCC(=O)N(C)c1ccc2nc(NCCC(=O)O)c(=O)n([C@@H](CC)c3ccccc3)c2n1 [Example 7, N-{6-[butanoyl(methyl)amino]-3-oxo-4-[(1S)-1-phenylpropyl]-3,4-dihydropyrido[2,3-b]pyrazin-2-yl}-beta-alanine]
956 | 14100 | CC[C@@H](c1ccccc1)n1c(=O)c(NCCC(=O)O)nc2ccc(N(C)C(=O)CO)nc21 [Example 4, N-{6-[(hydroxyacetyl)(methyl)amino]-3-oxo-4-[(1S)-1-phenylpropyl]-3,4-dihydropyrido[2,3-b]pyrazin-2-yl}-beta-alanine]
268 | 2430 | CCC[C@H](COC)n1c(=O)c(NCCC(=O)O)nc2ccc(N(C)C(=O)CC)nc21 [Example 17, N-{4-[(2R)-1-methoxypentan-2-yl]-6-[methyl(propanoyl)amino]-3-oxo-3,4-dihydropyrido[2,3-b]pyrazin-2-yl}-beta-alanine]
102 | 239 | CCC(=O)N(C)c1ccc2nc(NCC(=O)NC)c(=O)n([C@@H](CC)c3ccccc3)c2n1 [Example 29, N-methyl-N-(2-{[2-(methylamino)-2-oxoethyl]amino}-3-oxo-4-[(1S)-1-phenylpropyl]-3,4-dihydropyrido[2,3-b]pyrazin-6-yl)propanamide]
207 | 743 | CC[C@@H](c1ccccc1)n1c(=O)c(NC(C)=O)nc2ccc(N(C)C(C)=O)nc21 [Example 21, N-{2-(acetylamino)-3-oxo-4-[(1S)-1-phenylpropyl]-3,4-dihydropyrido[2,3-b]pyrazin-6-yl}-N-methylacetamide]
62.7 | 1090 | CCC[C@@H](c1ccccc1)n1c(=O)c(NCCC(=O)O)nc2ccc(-c3c(C)noc3C)nc21 [Example 52, N-{6-(3,5-dimethyl-1,2-oxazol-4-yl)-3-oxo-4-[(1S)-1-phenylbutyl]-3,4-dihydropyrido[2,3-b]pyrazin-2-yl}-beta-alanine]

More lines, now with the values behind:

SMILES | IC50 (BRD4 BD1) [nM] | IC50 [1] [nM]
CCC(=O)N(C)c1ccc2nc(NCCC(=O)NC)c(=O)n([C@@H](CC)c3ccccn3)c2n1 [Example 33, N-methyl-N^3-{6-[methyl(propanoyl)amino]-3-oxo-4-[(1S)-1-(pyridin-2-yl)propyl]-3,4-dihydropyrido[2,3-b]pyrazin-2-yl}-beta-alaninamide] | 363 | 452
Cc1noc(C)c1-c1ccc2nc(NCC(=O)O)c(=O)n([C@@H](C)c3ccccc3)c2n1 [Example 41, N-{6-(3,5-dimethyl-1,2-oxazol-4-yl)-3-oxo-4-[(1S)-1-phenylethyl]-3,4-dihydropyrido[2,3-b]pyrazin-2-yl}glycine] | 585 | 35500
COC[C@@H](c1ccccc1)n1c(=O)c(NCCC(=O)O)nc2ccc(N(C)C(C)=O)nc21 [Example 14, N-{6-[acetyl(methyl)amino]-4-[(1R)-2-methoxy-1-phenylethyl]-3-oxo-3,4-dihydropyrido[2,3-b]pyrazin-2-yl}-beta-alanine] | 223 | 4800
Cc1noc(C)c1-c1ccc2nc(NCCN3CCOCC3)c(=O)n([C@@H](C)c3ccccc3)c2n1 [Example 40, 6-(3,5-dimethyl-1,2-oxazol-4-yl)-2-{[2-(morpholin-4-yl)ethyl]amino}-4-[(1S)-1-phenylethyl]pyrido[2,3-b]pyrazin-3(4H)-one] | 225 | 1390
CC[C@@H](c1ccccc1)n1c(=O)c(NCCC(=O)O)nc2ccc(N(C)C(=O)C3CCC3)nc21 [Example 8] | 122 | 1800
Cc1noc(C)c1-c1ccc2nc(NCCC(=O)NS(C)(=O)=O)c(=O)n([C@@H](C)c3ccccc3)c2n1 [Example 50, N^3-{6-(3,5-dimethyl-1,2-oxazol-4-yl)-3-oxo-4-[(1S)-1-phenylethyl]-3,4-dihydropyrido[2,3-b]pyrazin-2-yl}-N-(methylsulfonyl)-beta-alaninamide] | 235 | 32000
Cc1noc(C)c1-c1ccc2nc(NCCC(=O)O)c(=O)n([C@H](c3ccccc3)C(C)C)c2n1 [Example 53, N-{6-(3,5-dimethyl-1,2-oxazol-4-yl)-4-[(1S)-2-methyl-1-phenylpropyl]-3-oxo-3,4-dihydropyrido[2,3-b]pyrazin-2-yl}-beta-alanine] | 125 | 9260
CCC(=O)N(C)c1ccc2nc(NCCC(=O)NC)c(=O)n([C@@H](CC)c3ccccc3)c2n1 [Example 32, N-methyl-N^3-{6-[methyl(propanoyl)amino]-3-oxo-4-[(1S)-1-phenylpropyl]-3,4-dihydropyrido[2,3-b]pyrazin-2-yl}-beta-alaninamide] | 64.8 | 266
Cc1noc(C)c1-c1ccc2nc(NCCC(=O)O)c(=O)n([C@@H](C)c3ccccc3)c2n1 [Example 42, N-{6-(3,5-dimethyl-1,2-oxazol-4-yl)-3-oxo-4-[(1S)-1-phenylethyl]-3,4-dihydropyrido[2,3-b]pyrazin-2-yl}-beta-alanine] | 146 | 6160
CNc1nc2ccc(N(C)C(C)=O)nc2n([C@@H](C)c2ccccc2OC)c1=O [Example 5, N-{4-[(1S)-1-(2-methoxyphenyl)ethyl]-2-(methylamino)-3-oxo-3,4-dihydropyrido[2,3-b]pyrazin-6-yl}-N-methylacetamide] | 653 | 1580
CCC(=O)N(C)c1ccc2nc(NCCC(=O)O)c(=O)n([C@@H](CC)c3ccccn3)c2n1 [Example 11, N-{6-[methyl(propanoyl)amino]-3-oxo-4-[(1S)-1-(pyridin-2-yl)propyl]-3,4-dihydropyrido[2,3-b]pyrazin-2-yl}-beta-alanine] | 251 | 2680
Cc1noc(C)c1-c1ccc2nc(NCCC(=O)O)c(=O)n([C@@H](C)C3CCCCC3)c2n1 [Example 55, N-{4-[(1S)-1-cyclohexylethyl]-6-(3,5-dimethyl-1,2-oxazol-4-yl)-3-oxo-3,4-dihydropyrido[2,3-b]pyrazin-2-yl}-beta-alanine] | 130 | 11400
COc1ccccc1[C@H](C)n1c(=O)c(NCCC(=O)O)nc2ccc(N(C)C(C)=O)nc21 [Example 1, N-{6-[acetyl(methyl)amino]-4-[(1S)-1-(2-methoxyphenyl)ethyl]-3-oxo-3,4-dihydropyrido[2,3-b]pyrazin-2-yl}-beta-alanine] | 730 | 38400
COCC(COC)n1c(=O)c(NCCC(=O)O)nc2ccc(-c3c(C)noc3C)nc21 [Example 48, N-[4-(1,3-dimethoxypropan-2-yl)-6-(3,5-dimethyl-1,2-oxazol-4-yl)-3-oxo-3,4-dihydropyrido[2,3-b]pyrazin-2-yl]-beta-alanine] | 465 | 15100
CC[C@@H](c1ccccc1)n1c(=O)c(NCCN2CCOCC2)nc2ccc(-c3c(C)noc3C)nc21 [Example 39, 6-(3,5-dimethyl-1,2-oxazol-4-yl)-2-{[2-(morpholin-4-yl)ethyl]amino}-4-[(1S)-1-phenylpropyl]pyrido[2,3-b]pyrazin-3(4H)-one] | 123 | 823
